Experimental data reported in US20120276070A1, “Induced Pluripotent Stem Cells and Related Methods” (VITRO DIAGNOSITICS, INC., priority 2009, published 2012).
No end group written: not given here.

What was measured:
POU5F1 (Oct3/4) = POU5F1 (Oct3/4) expression after adding small molecules to the adult stem cell culture medium; assay type: cell-based
native human MSC = test: Puromycin dose-response / selection: killing of native, non-transfected human MSC; assay type: cell-based; conditions: 10 μg/ml puromycin in medium
Procedure: Human mesenchymal stem cells (Vitro Diagnostics, Inc., catalog number SC00A1) were cultured at 7500/cm^2 in T25 flasks (Greiner Bio-One catalog number 690-190) following coating at 2 μg/cm^2 with poly-L-lysine (Sigma Catalog number P1399) using low serum complete MSC cell culture medium (Vitro Diagnostics, Inc., catalog number SC00B1). Cultures were maintained here and throughout this study in a 5% O2, 5% CO2, balance N2 gas environment in a humidified chamber maintained at 37° C. Following two days of continuous culture and at about 40% confluence, the cultures were exposed to 1/15 dilution of the POU5-F1 pseudovirus stock in low serum medium containing 5 μg/ml polybrene (Sigma catalog number H9268). Following 10 hours exposure to the pseudovirus particles, the cultures were washed twice with PBS and cultured in low serum medium (Vitro SC00B1). Selection of stable transfectants began 16 hours later using 3 to 10 μg/ml puromycin (Sigma catalog number P7255) which was a sufficient concentration to kill native, non-transfected human MSC. Single colony clones were established by limited dilution cloning in 96 well plates (Greiner Bio-One, catalog number 655-160) using low serum MSC medium (Vitro Diagnostics, Inc., catalog number SC00B1) containing 10 μg/ml puromycin. […]

[1] = added to the medium at 1 to 2 mM

Nc1ncn([C@@H]2O[C@H](CO)[C@@H](O)[C@H]2O)c(=O)n1 [5-azacytidine]
POU5F1 (Oct3/4) expression (POU5F1 (Oct3/4); added to the medium at 0.5 mM, transient periods </=48 hours): increased POU5F1 (Oct3/4) expression

C[C@]12CCC(=O)C=C1CC[C@@H]1[C@@H]2[C@@H](O)C[C@@]2(C)[C@H]1CC[C@]2(O)C(=O)CO [Hydrocortisone, hydrocortisone]
POU5F1 (Oct3/4) expression (POU5F1 (Oct3/4); added to the medium, preferably at 80 to 110 nM): increased POU5F1 (Oct3/4) expression

O=C1O[C@H]([C@@H](O)CO)C(O)=C1O [Vitamin C, ascorbic acid]
POU5F1 (Oct3/4) expression (POU5F1 (Oct3/4); added to the medium at 60 μM): increased POU5F1 (Oct3/4) expression

COc1ccc(C[C@H](N)C(=O)N[C@H]2[C@@H](O)[C@H](n3cnc4c(N(C)C)ncnc43)O[C@@H]2CO)cc1 [puromycin]
effect on wild type MSCs (native human MSC): lethal

CCCC(=O)[O-].[Na+] [sodium butyrate]
POU5F1 (Oct3/4) expression (POU5F1 (Oct3/4); [1]): increased POU5F1 (Oct3/4) expression

CCCC(CCC)C(=O)O [valproic acid]
POU5F1 (Oct3/4) expression (POU5F1 (Oct3/4); [1]): increased POU5F1 (Oct3/4) expression

gonadotropin releasing hormone (QHWSYGLRPG; ends and bridges not checked; UniProt P01148 24-33, looked up) [GnRH]
POU5F1 (Oct3/4) expression (POU5F1 (Oct3/4); added to the medium at 75 pg/ml): increased POU5F1 (Oct3/4) expression
